Values of other authors, collected in patent publication US20080286363A1, “Pharmaceutical Compositions for the Treatment of Inflammatory and Obstructive Airways Diseases” (priority 2005, published 2008).

Conditions: aerosol formulation, single administration of a metered dose, asthma

SMILES: C[N+]1(C)CCC(OC(=O)C(O)(c2ccccc2)C2CCCC2)C1.[Br-] (racemic) [Compound B1, 3-[(Cyclopentyl-hydroxyphenylacetyl)oxy]-1,1-dimethylpyrrolidinium bromide]
- bronchodilation duration: up to 12 hours
